From patent US7414128B2, “Crystalline R-guanidines, Arginine or (L)-Arginine (2S)-2-Ethoxy-3-{4-[2-(10H -phenoxazin-10-yl)ethoxy]phenyl}propanoate” (Dr. Reddy's Laboratories, Limited, priority 2002, dated 2008) come the findings set out here.

Where a name gives a salt, the structure may show the parent alone.

Data set [1] can be described thus: bioavailability. The conditions noted are these: attributed to the higher aqueous solubility.
Data set [2] in a line: hygroscopicity at high relative humidity. Type of data set: physicochemical. The settings on record: even at relative humidities as high as 90 RH.
The nature of data set [3]: stability of the salt. Format: physicochemical.
Data set [4] in a line: aqueous solubility. Type of data set: physicochemical. The settings on record: salt compared with the free acid.

In the case of `CCO[C@@H](Cc1ccc(OCCN2c3ccccc3Oc3ccccc32)cc1)C(=O)O` [(L)-Arginine salt, (L)-Arginine (2S)-2-Ethoxy-3-{4-[2-(10H-phenoxazin-10-yl)ethoxy]phenyl}propanoate], in data set [1], the bioavailability entry is listed as “good bioavailability”. The hygroscopicity result in data set [2] is on record as “not hygroscopic”. The stability entry in data set [3] is “highly stable”. Besides, in data set [4], the “solubility in aqueous media” value is recorded as “significantly higher aqueous solubility”.
For `CCO[C@@H](Cc1ccc(OCCN2c3ccccc3Oc3ccccc32)cc1)C(=O)O` [(2S)-2-Ethoxy-3-{4-[2-(10H-phenoxazin-10-yl)ethoxy]phenyl}pr] [(2S)-2-Ethoxy-3-{4-[2-(10H-phenoxazin-10-yl)ethoxy]phenyl}propanoic acid], the “solubility in aqueous media” value in data set [4] is listed as “sparingly soluble”.
